Assay results: patent publication US5416073A, “Growth hormone-releasing peptides and method of treating animals, therewith” (The Adminstrators of the Tulane Educational Fund, priority 1985, dated 1995)
Square brackets hold non-standard residues; d marks the D form. Peptide text beside a SMILES is read from it.

Tested on: Growth Hormone Release
Test: Peptide effects on growth hormone release, plasma GH by RIA in anesthetized male rats
Format: in vivo, rat
Conditions: for Plasma GH: 15 min; for % Potency: by comparison to pooled standards GRF(1-29)-NH2, limits in parenthesis
Experimental: In this evaluation, the procedures described by W. A. Murphy et al., Endocrinology 109:491-495 (1980), were employed.
In growth hormone (GH) experiments, male rats (Charles Rivers) were anesthetized with NEMBUTAL® (6 mg per 100 g body weight) which also served to maintain stimulated plasma GH levels. Exactly 30 minutes after the rats were anesthetized, 0.5 mL of saline or the test peptide in saline was administered as a SC bolus. A 1 mL blood sample was drawn from the jugular vein 15 minutes after the injection of the peptide in saline. GH levels were determined using NIADDKD rat GH RIA components.

[1] = dose 1.0 μg/100 g BW SC, saline 541 ± 78
[2] = dose 5.0 μg/100 g BW SC, saline 541 ± 78

Molecule: N-acetyl-L-histidine-1,D-alanine^2 -human Pancreatic Growth Hormone-Releasing(1-29)-amine [[N-Ac-His^1, D-Ala^2]-hpGRF(1-29)-NH2]
- Plasma GH [1]: 1974 ± 274 ng/mL
- Plasma GH [2]: 4989 ± 638 ng/mL

Molecule: N-acetyl-L-histidine-1,D-alamine-2,L-norleucine-27-human Pancreatic Growth Hormone-Releasing (1-29)-amine [N-AcHis^1, D-Ala^2, Nle^27]
- % Potency: 1574 (1112-2226) %
- Plasma GH (dose 0.5 (unit not given), SC): 1146 ± 143
- Plasma GH (dose 1.25 (unit not given), SC): 1907 ± 603

Molecule: CC[C@H](C)[C@H](NC(=O)[C@H](C)NC(=O)[C@H](CC(=O)O)NC(=O)[C@@H](C)NC(=O)[C@@H](N)Cc1ccc(O)cc1)C(=O)N[C@@H](Cc1ccccc1)C(=O)N[C@H](C(=O)N[C@@H](CC(N)=O)C(=O)N[C@@H](CO)C(=O)N[C@@H](Cc1ccc(O)cc1)C(=O)N[C@@H](CCCNC(=N)N)C(=O)N[C@@H](CCCNC(=N)N)C(=O)N[C@H](C(=O)N[C@@H](CC(C)C)C(=O)NCC(=O)N[C@@H](CCC(N)=O)C(=O)N[C@@H](CC(C)C)C(=O)N[C@@H](CO)C(=O)N[C@@H](C)C(=O)N[C@@H](CCCNC(=N)N)C(=O)N[C@@H](CCCNC(=N)N)C(=O)N[C@@H](CC(C)C)C(=O)N[C@@H](CC(C)C)C(=O)N[C@@H](CCC(N)=O)C(=O)N[C@@H](CC(=O)O)C(=O)N[C@H](C(=O)N[C@@H](CCSC)C(=O)N[C@@H](CO)C(=O)N[C@@H](CCCNC(=N)N)C(N)=O)[C@@H](C)CC)C(C)C)[C@@H](C)O [[D-Ala^2, Arg^12, 21]-hpGRF(1-29)-NH2, D-alanine^2, Arginine^12,21-human Growth Hormone-Releasing (1-29)-amide] (H-Y[dA]DAIFTNSYRRVLGQLSARRLLQDIMSR-NH2)
- Plasma GH (dose 0.4 μ/100 g BW SC, saline 309 ± 20): 755 ± 131 ng/mL
- Plasma GH (dose 1.0 μ/100 g BW SC, saline 309 ± 20): 1752 ± 289 ng/mL

Molecule: Ac-YADAIFTNSYRRVLGQLSARRLLQDIMSR-NH2 [[N-Ac-Tyr, Arg^12, 21]-hpGRF(1-29)-NH2, N-acetyl Arginine^12,21-human Pancreatic Growth Hormone-Releasing Factor (1-29)-amide]
- Plasma GH (dose 1 μ/100 g BW SC, saline 27% ± 54): 796 ± 88 ng/mL
- Plasma GH (dose 2.5 μ/100 g BW SC, saline 27% ± 54): 1649 ± 167 ng/mL

Molecule: CCCC[C@H](NC(=O)[C@@H](NC(=O)[C@H](CC(=O)O)NC(=O)[C@H](CCC(N)=O)NC(=O)[C@H](CC(C)C)NC(=O)[C@H](CC(C)C)NC(=O)[C@H](CCCCN)NC(=O)[C@H](CCCNC(=N)N)NC(=O)[C@H](C)NC(=O)[C@H](CO)NC(=O)[C@H](CC(C)C)NC(=O)[C@H](CCC(N)=O)NC(=O)CNC(=O)[C@H](CC(C)C)NC(=O)[C@@H](NC(=O)[C@H](CCCCN)NC(=O)[C@H](CCCNC(=N)N)NC(=O)[C@H](Cc1ccc(O)cc1)NC(=O)[C@H](CO)NC(=O)[C@H](CC(N)=O)NC(=O)[C@@H](NC(=O)[C@H](Cc1ccccc1)NC(=O)[C@@H](NC(=O)[C@H](C)NC(=O)[C@H](CC(=O)O)NC(=O)[C@@H](C)NC(=O)[C@@H](N)Cc1ccc(O)cc1)[C@@H](C)CC)[C@@H](C)O)C(C)C)[C@@H](C)CC)C(=O)N[C@@H](CO)C(=O)N[C@@H](CCCNC(=N)N)C(N)=O [D-Ala^2 -Nle^27, D-alanine^2, Norleucine^27-human Pancreatic Growth Hormone-Releasing(1-29)-amide]
- Plasma GH (dose 0.1 ug/100 g BW SC, saline 278 ± 37): 465 ± 75 ng/mL
- Plasma GH (dose 1.0 ug/100 g BW SC, saline 278 ± 37): 2287 ± 265 ng/mL

Molecule: D-asparagine^8 -human Pancreatic Growth Hormone-Releasing(1-29)-amide [D-Asn^8]
- Plasma GH (dose 4 ug/100 g BW SC, saline 366 ± 81): 1296 ± 118 ng/mL
- Plasma GH (dose 10 ug/100 g BW SC, saline 366 ± 81): 2397 ± 246 ng/mL

Molecule: CC[C@H](C)[C@H](NC(=O)[C@H](C)NC(=O)[C@H](CC(=O)O)NC(=O)[C@H](C)NC(=O)[C@H](Cc1ccc(O)cc1)NC(C)=O)C(=O)N[C@@H](Cc1ccccc1)C(=O)N[C@H](C(=O)N[C@@H](CC(N)=O)C(=O)N[C@@H](CO)C(=O)N[C@@H](Cc1ccc(O)cc1)C(=O)N[C@@H](CCCNC(=N)N)C(=O)N[C@@H](CCCCN)C(=O)N[C@H](C(=O)N[C@@H](CC(C)C)C(=O)NCC(=O)N[C@@H](CCC(N)=O)C(=O)N[C@@H](CC(C)C)C(=O)N[C@@H](CO)C(=O)N[C@@H](C)C(=O)N[C@@H](CCCNC(=N)N)C(=O)N[C@@H](CCCCN)C(=O)N[C@@H](CC(C)C)C(=O)N[C@@H](CC(C)C)C(=O)N[C@@H](CCC(N)=O)C(=O)N[C@@H](CC(=O)O)C(=O)N[C@H](C(=O)N[C@@H](CCSC)C(=O)N[C@@H](CO)C(=O)N[C@@H](CCCNC(=N)N)C(N)=O)[C@@H](C)CC)C(C)C)[C@@H](C)O [N-Ac-hpGRF(1-29)-NH2, N-acetyl Human Pancreatic Growth Hormone-Releasing Factor(1-29)-Amide]
- Plasma GH (dose 1.20 μg/100 g BW SC, saline 342 ± 53): 2518 ± 598 ng/mL
- Plasma GH (dose 3.0 μg/100 g BW SC, saline 342 ± 53): 4899 ± 557 ng/mL

Molecule: CC[C@H](C)[C@H](NC(=O)[C@H](C)NC(=O)[C@@H](CC(=O)O)NC(=O)[C@@H](C)NC(=O)[C@@H](Cc1ccc(O)cc1)NC(C)=O)C(=O)N[C@@H](Cc1ccccc1)C(=O)N[C@H](C(=O)N[C@@H](CC(N)=O)C(=O)N[C@@H](CO)C(=O)N[C@@H](Cc1ccc(O)cc1)C(=O)N[C@@H](CCCNC(=N)N)C(=O)N[C@@H](CCCCN)C(=O)N[C@H](C(=O)N[C@@H](CC(C)C)C(=O)NCC(=O)N[C@@H](CCC(N)=O)C(=O)N[C@@H](CC(C)C)C(=O)N[C@@H](CO)C(=O)N[C@@H](C)C(=O)N[C@@H](CCCNC(=N)N)C(=O)N[C@@H](CCCCN)C(=O)N[C@@H](CC(C)C)C(=O)N[C@@H](CC(C)C)C(=O)N[C@@H](CCC(N)=O)C(=O)N[C@@H](CC(=O)O)C(=O)N[C@H](C(=O)N[C@@H](CCSC)C(=O)N[C@@H](CO)C(=O)N[C@@H](CCCNC(=N)N)C(N)=O)[C@@H](C)CC)C(C)C)[C@@H](C)O [N-acetyl-D-tyrosine^1,D-alanine^2,D-aspartic acid^3-human Pancreatic Growth Hormone-Releasing(1-29)-amine]
- Plasma GH [1]: 1181 ± 164 ng/mL
- Plasma GH [2]: 3594 ± 754 ng/mL

Molecule: D-serine-9-human Pancreatic Growth Hormone-Releasing(1-29)-amine [D-Ser^9]
- % Potency: 108 (77-151) %
- Plasma GH (dose 16 (unit not given), SC): 1804 ± 312
- Plasma GH (dose 40 (unit not given), SC): 3652 ± 370

Molecule: CCCC[C@H](NC(=O)[C@@H](NC(=O)[C@H](CC(=O)O)NC(=O)[C@H](CCC(N)=O)NC(=O)[C@H](CC(C)C)NC(=O)[C@H](CC(C)C)NC(=O)[C@H](CCCCN)NC(=O)[C@H](CCCNC(=N)N)NC(=O)[C@H](C)NC(=O)[C@H](CO)NC(=O)[C@H](CC(C)C)NC(=O)[C@H](CCC(N)=O)NC(=O)CNC(=O)[C@H](CC(C)C)NC(=O)[C@@H](NC(=O)[C@H](CCCCN)NC(=O)[C@H](CCCNC(=N)N)NC(=O)[C@H](Cc1ccc(O)cc1)NC(=O)[C@H](CO)NC(=O)[C@@H](CC(N)=O)NC(=O)[C@@H](NC(=O)[C@H](Cc1ccccc1)NC(=O)[C@@H](NC(=O)[C@H](C)NC(=O)[C@H](CC(=O)O)NC(=O)[C@@H](C)NC(=O)[C@@H](N)Cc1ccc(O)cc1)[C@@H](C)CC)[C@@H](C)O)C(C)C)[C@@H](C)CC)C(=O)N[C@@H](CO)C(=O)N[C@@H](CCCNC(=N)N)C(N)=O [D-Ala^2 -D-Asn^8 -Nle^27, D-alanine^2, D-asparagine^8, Norleucine^27-human Pancreatic Growth Hormone-Releasing(1-29)-amide]
- Plasma GH (dose 0.05 ug/100 g BW SC, saline 203 ± 39): 407 ± 53 ng/mL
- Plasma GH (dose 0.5 ug/100 g BW SC, saline 203 ± 39): 1613 ± 138 ng/mL
